The target of one experiment is TF/FVIla (Homo sapiens, UniProt P08709). The experiment is described as follows: Inhibition of TF/factor VIIa (TF/FVIIa-IC50). In kind it is biochemical. The source says: The inhibition of factor VIIa by the compounds according to the invention and the measurement of the anticoagulant and antithrombotic activity can be determined by conventional in-vitro or in-vivo methods. A conventional method for the measurement of the inhibition of factor VIIa is described, for example, by H. F. Ronning et al. in Thrombosis Research 1996, 84, 73-81.

The target of a further experiment is FXa (Homo sapiens, UniProt P00742). As to the kind of experiment: Inhibition of factor Xa (FXa-IC50). In kind it is biochemical. The source says: The inhibition of factor Xa by the compounds according to the invention and the measurement of the anticoagulant and antithrombotic activity can be determined by conventional in-vitro or in-vivo methods. A suitable method is described, for example, by J. Hauptmann et al. in Thrombosis and Haemostasis 1990, 63, 220-223.
The inhibition of factor Xa can be measured, for example by the method of T. Hara et al. in Thromb. Haemostas. 1994, 71, 314-319.

Chain of FXa (P00742 235-488 limits assumed): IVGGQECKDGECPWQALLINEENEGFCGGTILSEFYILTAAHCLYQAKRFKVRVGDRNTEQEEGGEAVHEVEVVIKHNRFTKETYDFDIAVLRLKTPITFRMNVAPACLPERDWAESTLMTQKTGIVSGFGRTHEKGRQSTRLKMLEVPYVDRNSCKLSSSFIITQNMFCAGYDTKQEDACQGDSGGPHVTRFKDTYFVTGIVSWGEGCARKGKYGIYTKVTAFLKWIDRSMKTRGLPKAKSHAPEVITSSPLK
Chain of FXa (P00742 41-179 partner limits assumed): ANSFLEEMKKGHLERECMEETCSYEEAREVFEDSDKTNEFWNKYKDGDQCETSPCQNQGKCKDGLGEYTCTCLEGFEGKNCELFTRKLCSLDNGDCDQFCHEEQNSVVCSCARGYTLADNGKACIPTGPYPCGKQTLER
Chain of TF/FVIla (P08709 213-466 limits assumed): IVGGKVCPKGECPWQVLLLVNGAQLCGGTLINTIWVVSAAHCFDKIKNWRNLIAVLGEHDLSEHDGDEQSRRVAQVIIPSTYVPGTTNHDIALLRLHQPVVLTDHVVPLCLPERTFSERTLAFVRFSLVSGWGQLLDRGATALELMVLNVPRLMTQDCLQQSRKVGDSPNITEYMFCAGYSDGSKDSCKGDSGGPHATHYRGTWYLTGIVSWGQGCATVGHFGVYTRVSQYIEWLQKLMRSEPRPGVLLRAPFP
Chain of TF/FVIla (P08709 61-212 partner limits assumed): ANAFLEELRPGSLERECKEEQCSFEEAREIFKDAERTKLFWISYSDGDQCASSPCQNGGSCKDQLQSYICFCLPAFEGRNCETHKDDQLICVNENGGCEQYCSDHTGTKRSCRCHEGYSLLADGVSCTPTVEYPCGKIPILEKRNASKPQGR
Chain of TF/FVIla (P13726 33-295 partner): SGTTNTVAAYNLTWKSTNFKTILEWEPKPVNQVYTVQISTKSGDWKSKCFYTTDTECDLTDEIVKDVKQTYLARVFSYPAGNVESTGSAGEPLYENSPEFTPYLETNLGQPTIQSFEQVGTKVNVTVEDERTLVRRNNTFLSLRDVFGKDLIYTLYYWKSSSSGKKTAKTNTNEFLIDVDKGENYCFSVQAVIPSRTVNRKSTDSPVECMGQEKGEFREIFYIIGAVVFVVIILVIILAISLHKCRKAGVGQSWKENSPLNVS

With `CCC[C@@H](NC(=O)Nc1ccc(Cl)s1)C(=O)Nc1ccc(N2CCOCC2=O)c(C)c1` [Compound A2, (R)-2-[3-(5-chlorothiophen-2-yl)ureido]-N-[4-(3-oxomorpholin-4-yl)-3-methylphenyl]valeramide], the IC50 at TF/FVIla and at FXa was 66 nM each time.
Take `CCCC(NC(=O)Nc1ccc(Cl)s1)C(=O)Nc1ccc(N2CCOCC2=O)cc1` (stereo not shown) [Compound A1, N-[4-(3-oxomorpholin-4-yl)-phenyl]-2-[3-(5-chlorothiophen-2-yl)ureido]valeramide]: the IC50 (as a rule, the concentration that inhibits the measured activity by half) was found to be 180 nM against TF/FVIla and 190 nM on FXa.

For the origin of these results see patent publication US20060135515A1, “Heterocyclic amides and their use treating thromboembolic diseases and tumors” (priority 2002, published 2006).
